Experiments:
Assay in all cases: relative viability (nuclei count vs DMSO), 5 days (fraction); higher = more cells survive
Carfilzomib + Crizotinib = compound: CC(C)C[C@H](NC(=O)[C@H](CCc1ccccc1)NC(=O)CN1CCOCC1)C(=O)N[C@@H](Cc1ccccc1)C(=O)N[C@@H](CC(C)C)C(=O)[C@@]1(C)CO1 [Carfilzomib] + C[C@@H](Oc1cc(-c2cnn(C3CCNCC3)c2)cnc1N)c1c(Cl)ccc(F)c1Cl [Crizotinib] (partner 1 µM)
In short: (§1)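 Lung cancer cell lines, seeded in 1536-well plates, were treated the following day by pin tool with a single drug or with five library-drug doses (not always all listed) in √10 steps on top of a fixed anchor-drug dose. Cells were fixed and nuclei stained in one step after 5 days, and nuclei were counted. Relative viability is the nuclei count for treated wells divided by that for vehicle wells, reported as medians of duplicate plates.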

Crizotinib + Bortezomib = compound: C[C@@H](Oc1cc(-c2cnn(C3CCNCC3)c2)cnc1N)c1c(Cl)ccc(F)c1Cl [Crizotinib] + CC(C)C[C@H](NC(=O)[C@H](Cc1ccccc1)NC(=O)c1cnccn1)B(O)O [Bortezomib] (partner 0.002 µM)
In short: as §1

Olaparib + Lapatinib = compound: O=C(c1cc(Cc2n[nH]c(=O)c3ccccc23)ccc1F)N1CCN(C(=O)C2CC2)CC1 [Olaparib] + CS(=O)(=O)CCNCc1ccc(-c2ccc3ncnc(Nc4ccc(OCc5cccc(F)c5)c(Cl)c4)c3c2)o1 [Lapatinib] (partner 2 µM)
In short: as §1

Crizotinib + Tozasertib = compound: C[C@@H](Oc1cc(-c2cnn(C3CCNCC3)c2)cnc1N)c1c(Cl)ccc(F)c1Cl [Crizotinib] + Cc1cc(Nc2cc(N3CCN(C)CC3)nc(Sc3ccc(NC(=O)C4CC4)cc3)n2)n[nH]1 [Tozasertib] (partner 0.1 µM)
In short: as §1

Row | Cell Line | relative viability (Carfilzomib + Crizotinib; first compound 0.001 µM) | relative viability (Carfilzomib + Crizotinib; first compound 0.003162 µM) | relative viability (Carfilzomib + Crizotinib; first compound 0.01 µM) | relative viability (Carfilzomib + Crizotinib; first compound 0.03162 µM) | relative viability (Carfilzomib + Crizotinib; first compound 0.1 µM) | relative viability (Crizotinib + Bortezomib; first compound 0.01 µM) | relative viability (Crizotinib + Bortezomib; first compound 0.03162 µM) | relative viability (Crizotinib + Bortezomib; first compound 0.1 µM) | relative viability (Crizotinib + Bortezomib; first compound 1 µM) | relative viability (Olaparib + Lapatinib; first compound 0.08 µM) | relative viability (Olaparib + Lapatinib; first compound 0.253 µM) | relative viability (Olaparib + Lapatinib; first compound 2.53 µM) | relative viability (Olaparib + Lapatinib; first compound 8 µM) | relative viability (Crizotinib + Tozasertib; first compound 0.01 µM) | relative viability (Crizotinib + Tozasertib; first compound 0.03162 µM) | relative viability (Crizotinib + Tozasertib; first compound 0.1 µM) | relative viability (Crizotinib + Tozasertib; first compound 1 µM) | relative viability (Crizotinib + Bortezomib; first compound 0.3162 µM) | relative viability (Crizotinib + Tozasertib; first compound 0.3162 µM)
1 | HCC-366 | 0.396 | 0.518 | 0.674 | 0.299 | 0.016 | 1.01 | 1.04 | 1.02 | 1.15 | 1.06 | 0.884 | 0.77 | 0.417 | 0.143 | 0.0981 | 0.106 | 0.136 | – | –
2 | HCC-827 | 1.02 | 0.953 | 0.985 | 0.858 | 0.271 | 0.887 | 1.06 | 1.14 | 0.931 | 0.239 | 0.202 | 0.194 | 0.176 | 0.427 | 0.438 | 0.414 | 0.415 | 0.999 | 0.413
3 | HOP-62 | 0.952 | 0.966 | 0.845 | 0.099 | 0.0686 | 0.822 | 0.788 | 1.03 | 0.584 | 1.22 | 1.08 | 0.741 | 0.538 | 0.396 | 0.33 | 0.354 | 0.383 | 0.523 | 0.322
4 | IA-LM | 0.956 | 0.796 | 0.502 | 0.0235 | 0.0632 | 0.848 | 0.754 | 0.735 | 0.704 | 1.13 | 0.926 | 0.746 | 0.602 | – | – | – | – | 0.744 | –
5 | LC-2-ad | 0.508 | 0.485 | 0.428 | 0.371 | 0.279 | 1.06 | 1.07 | 1 | 1.04 | 1.08 | 0.89 | 0.905 | 0.597 | 0.425 | 0.454 | 0.431 | 0.47 | – | 0.423
6 | LCLC-97TM1 | 0.354 | 0.339 | 0.352 | 0.0915 | 0.129 | 0.641 | 0.601 | 1.09 | 0.519 | 1.21 | 0.947 | 0.565 | 0.438 | 0.19 | 0.234 | 0.21 | 0.224 | 0.435 | 0.201
7 | LCLC-103H | 1.03 | 1.01 | 1.07 | 0.888 | 0.204 | 1.06 | 1.04 | 1.11 | 1.16 | – | – | – | – | 0.37 | 0.39 | 0.488 | 0.578 | 1.09 | 0.451
8 | LK-2 | – | 0.237 | 0.16 | 0.262 | 0.209 | – | – | – | – | 0.985 | 0.935 | 0.92 | 0.941 | 0.173 | 0.177 | 0.197 | 0.19 | – | –
9 | LOU-NH91 | 0.818 | 0.798 | 0.77 | 0.434 | 0.277 | 0.457 | 0.465 | 0.451 | 0.458 | 0.83 | 0.77 | 0.733 | 0.735 | 0.674 | 0.69 | 0.751 | 0.677 | 0.484 | 0.606
10 | NCI-H358 | 0.712 | 0.802 | 0.525 | 0.104 | 0.144 | – | – | – | – | 0.388 | 0.434 | 0.44 | 0.426 | 0.0979 | 0.105 | 0.118 | 0.0946 | – | 0.0922
11 | NCI-H441 | 0.7 | 1.15 | 0.362 | 0.1 | 0.127 | 0.689 | 0.419 | 0.764 | 0.355 | – | – | – | – | 0.527 | 0.609 | 0.536 | 0.837 | – | –
12 | NCI-H522 | – | – | – | – | – | – | – | – | – | – | – | – | – | 0.509 | 0.492 | 0.503 | 0.471 | – | 0.596
13 | NCI-H1299 | 1.01 | 0.966 | 0.981 | 0.472 | 0.178 | 1.04 | 1.07 | 1 | 0.996 | 1.01 | 0.927 | 0.949 | 0.963 | – | – | – | – | 1.02 | –
14 | NCI-H1395 | – | – | – | – | – | – | – | – | – | 0.98 | 0.661 | 0.839 | 0.435 | 0.67 | 0.734 | 0.764 | 0.74 | – | 0.738
15 | NCI-H1563 | 0.939 | 0.902 | 0.897 | 0.711 | 0.397 | 0.744 | 0.859 | 0.857 | 0.832 | 0.975 | 0.999 | 0.992 | 0.92 | – | – | – | – | 0.779 | –
16 | NCI-H1623 | – | – | – | – | – | – | – | – | – | – | – | – | – | 0.355 | 0.399 | 0.415 | 0.43 | – | 0.395
17 | NCI-H1648 | – | – | – | – | – | – | – | – | – | – | – | – | – | 0.548 | 0.599 | – | 0.47 | – | 0.497
18 | NCI-H1703 | 0.579 | 0.73 | 0.168 | 0.0733 | 0.0878 | 0.365 | 0.301 | 0.226 | 0.322 | 1.63 | 1.03 | 1.29 | 1.04 | – | – | – | – | 0.319 | –
19 | NCI-H1792 | 0.946 | 0.938 | 1.01 | 0.985 | 0.642 | 0.955 | 0.983 | 1.01 | 0.917 | 0.895 | 0.738 | 0.82 | 0.779 | – | – | – | – | 0.931 | –
20 | NCI-H1944 | 1.02 | 1.2 | 1.09 | 1.07 | 0.302 | – | – | – | – | 0.781 | 0.663 | 0.668 | 0.627 | 0.254 | 0.248 | 0.252 | 0.254 | – | 0.247
21 | NCI-H2170 | 1.1 | 1.32 | 1.33 | 0.528 | 0.2 | – | – | – | – | 0.29 | 0.259 | 0.269 | 0.279 | 0.683 | 0.793 | 0.669 | 0.681 | – | 0.792
22 | NCI-H2342 | – | – | – | – | – | – | – | – | – | – | – | – | – | 0.489 | 0.492 | 0.584 | 0.485 | – | 0.524
23 | SK-MES-1 | 1.04 | 1.05 | 1.09 | 0.752 | 0.169 | – | – | – | – | 0.537 | 0.491 | 0.501 | 0.433 | 0.844 | 0.905 | 0.87 | 0.845 | – | 0.808
24 | SW 900 | – | – | – | – | – | – | – | – | – | – | – | – | – | 0.657 | 0.541 | 0.512 | 0.613 | – | 0.52

From the supplement of paper PMC10307832
